Data: patent US12128047B2, “TLR7 agonist and pharmaceutical combination thereof for treating lung cancer” (CHIA TAI TIANQING PHARMACEUTICAL GROUP CO., LTD., priority 2018, dated 2024)

System: LLC (Lewis Lung Cancer) tumor
Assay: Antitumor experiment in LLC mouse model (subcutaneous xenograft LLC tumor)
Type: in vivo, C57BL/6 mice
Conditions: i.g.; for TV (mm^3) on day 0 Mean ± SD: day 0 (grouping, before dosing from day 1); for TGI (%): from tumor weight on day 15 vs control group
Protocol: In Example 1, the TLR7 agonist was
[drawing 58] and anlotinib was anlotinib dihydrochloride.
LLC (Lewis Lung Cancer) Mice: subcutaneously grafted tumor cells of lung cancer (concentration: 2×10^6/mL×0.2 mL/mouse) were inoculated into C57BL/6 mice at the right side armpit (the site to be inoculated was shaved before inoculating) in a sterile environment, and passaged using a block insertion method. The C57BL/6 mice were female and 16-18 g in weight, and the breeding environment was SPF level. The diameter of the C57BL/6 xenograft tumor was measured using a vernier caliper, and the animals were randomly divided into five groups when the tumors grew to 100-300 mm^3: • i. Control group (blank control); • ii. Monotherapy group: anlotinib 5 mg/kg/d (positive control), with normal saline as a vehicle; • iii. Monotherapy group: TLR7 agonist 20 mg/kg, t.i.w., with ethanol/Tween 80 (v:v=1:1) as a vehicle; • iv. Monotherapy group: anlotinib 1 mg/kg/d, with normal saline as a vehicle; and • v. Combination therapy group: TLR7 agonist 20 mg/kg, t.i.w., and anlotinib 1 mg/kg/d.
The mice in the control group and monotherapy groups were administered in a volume of 10 mL/kg, and the mice in the combination therapy group were administered with two drugs simultaneously, each in a volume of 10 mL/kg. Weights and diameter of the tumor were measured every three days, and the behavior of mice was observed daily.
Mice were divided into groups on day 0, with 12 in the control group and 6 in each of the remaining groups. The drugs were administered intragastrically (i.g.) from day 1. The treatment was discontinued on day 12. During the experiment, the tumor volume was measured on days 0, 3, 6, 9, 12 and 15, and the tumors were removed and weighed on day 15, i.e., at the end of experiment.
The tumor volume and the tumor growth inhibition were calculated using the following formulae: Tumor volume (TV)=(L×W^2)/2. Tumor growth inhibition (TGI)=(1−tumor weight in the treatment group/tumor weight in the control group)×100%.

Row | SMILES | TV (mm^3) on day 0 Mean ± SD (TLR7 agonist 20 mg/kg, t.i.w.) [mm^3] | TV (mm^3) on day 12 Mean ± SD (TLR7 agonist 20 mg/kg, t.i.w.) [mm^3] | TV (mm^3) on day 15 Mean ± SD (TLR7 agonist 20 mg/kg, t.i.w.) [mm^3] | TGI (%) (TLR7 agonist 20 mg/kg, t.i.w.) | growth of LLC tumor (result in words) (TLR7 agonist alone, 20 mg/kg, t.i.w., summary of Table 1) | TV (mm^3) on day 0 Mean ± SD (anlotinib 1 mg/kg/d × 11 d) [mm^3] | TV (mm^3) on day 12 Mean ± SD (anlotinib 1 mg/kg/d × 11 d) [mm^3] | TV (mm^3) on day 15 Mean ± SD (anlotinib 1 mg/kg/d × 11 d) [mm^3] | TGI (%) (anlotinib 1 mg/kg/d × 11 d) | TV (mm^3) on day 0 Mean ± SD (anlotinib 5 mg/kg/d × 11 d, female C57BL/6 mice with LLC tumor) [mm^3] | TV (mm^3) on day 12 Mean ± SD (anlotinib 5 mg/kg/d × 11 d) [mm^3] | TV (mm^3) on day 15 Mean ± SD (anlotinib 5 mg/kg/d × 11 d) [mm^3] | TGI (%) (anlotinib 5 mg/kg/d × 11 d)
1 | CCCCOc1nc(N)c2[nH]cc(Cc3ccc(CN4CCCC4)cc3)c2n1 [TLR7 agonist] | 212.98 ± 47.17 | 2353.68 ± 663.83 | 3257.62 ± 577.45 | 30.1 | can inhibit the growth of LLC tumor | – | – | – | – | – | – | – | –
2 | COc1cc2c(Oc3ccc4[nH]c(C)cc4c3F)ccnc2cc1OCC1(N)CC1 [Anlotinib, 1-[[[4-(4-fluoro-2-methyl-1H-indol-5-yl)oxy-6-methoxyquinolin-7-yl]oxy]methyl]cyclopropylamine] | – | – | – | – | – | 213.25 ± 39.34 | 2697.21 ± 747.99 | 4114.08 ± 1213.40 | 13.5 | 213.47 ± 38.16 | 1393.38 ± 532.59 | 1811.75 ± 736.45 | 63.4
